The results in this text go back to patent US20050267020A1, “Polypeptides derived from inducible hsp70 and pharmaceutical compositions containing the same” (priority 2001, published 2005).

Experiment [1] has as its system human CD8+ cells. Put plainly: Generation of CTL from human PBMC with peptide- or polyepitope-pulsed dendritic cells, intracellular IFN-γ staining. Format: cell-based. To be noted: CD8+ cells stimulated with peptide-loaded dendritic cells. On the procedure: The three graphs entitled hCTL380, hCTL391 and hCTL393 represent respectively the testing of p380, p391 and p393-specific human CTLs. P391 and p393 specific CTLs were tested towards EBV-B cells, whereas p380 specific CTLs were tested towards T2 cells. The number of IFN-γ producing CD8+ cells for 10^5 CD8+ cells upon activation, indicated on the X-axis, was measured, as assessed by staining cells for CD8 and intracellular IFN-γ.
Polyepitope induced human CTL were tested for their capacity to respond to T2 cells loaded with p380, p391 or p393 or the irrelevant HIVpol589 peptides in intracellular IFN-γ staining. The X axis represents the number of IFNγ-producing CTL/10^5 CD8+ cells. On the Y axis, upper to lower bars represent the results obtained when cells were loaded respectively with irrelevant HIV pol589 peptides, or with p380, p391 or p393 peptides.
Generation of CTL from Human Peripheral Blood Mononuclear Cells (PBMC). Fresh PBMC collected from healthy donnors under informed consent were serologically typed for the studied HLA-class I molecule, and purified using standard Ficoll-Paque (Amersham Pharmacia Biotech AB). Dendritic cells (DC) were prepared by cultivating plastic adherent PBMC in the presence of 500 U/mL GM-CSF (R&D Systems Inc. MN) and 500 U/mL IL-4 (R&D Systems Inc. MN) for 7 days such as described in Keogh et al. (30).
DC were then maturated for 2 days with 2 μg/mL anti-CD40 antibody and 100 ng/mL Poly I:C (Sigma-Aldrich). […] Autologous CD8+ purified T-cells (CD8 MicroBeads, Miltneyi Biotec Inc. CA) were stimulated weekly with DC pulsed for two hours with peptide (10 μM) and irradiated at 35Gy at a T:DC ratio of 10:1 in culture medium (CM; RPMI 1640 supplemented with 10% human AB serum, […] L-glutamine and gentamycin). 1×10^3 U/mL IL-6 and SU/mL IL-12 (R&D Systems Inc. MN) were added during the first week of culture. 20 U/mL clinical grade IL-2 (Proleukin, Chiron Corp.) and 10 ng/mL IL-7 (R&D Systems Inc. MN) were added during the next two weeks of culture. 7 days after the last stimulation with DC, peptide specific IFN-γ secreting CD8+ T cells were magnetically sorted following encounter of the peptide presented by HLA-A*0201+ B-EBV cells (IFN-γ Secretion Assay, Miltenyi Biotec Inc. CA). The characterization of peptide-specific T cells was tested 7 days after the purification step.
Intracellular IFN-g Staining. 5×10^4 T cells were incubated with 10^5 stimulating peptide loaded EBV-B cells or with 10^5 tumor cells in the presence of 20 μg/ml brefeldin-A (Sigma, Oakville, Canada). Six hours later, they were washed, stained with r-phycoerythrin-conjugated anti-CD8 antibody (Caltag Laboratories, Burlingame, Calif.) in PBS for 25 min at 4° C., washed and fixed with 4% PFA. Then, cells were permeabilized with PBS 0.5% BSA 0.2% saponin (Sigma, Oakville, Canada), and stained with allophycocyanin-conjugated anti-IFNg mAb (PharMingen, Mississauga, Canada) for 25 min at 4° C. Cells were analyzed on FACSCalibur (Becton Dickinson, Mountain View, Calif.).

Experiment [2] relates to COS cells transfected with both Hsp70 and HHD expression vectors. Put plainly: Peptide processing assay on COS-transfected cells, TNF-α secretion by murine CTL. Format: cell-based, simian. An excerpt:
After contact of murine CTL lines with transfected COS cell, CTL recognition of COS cells is expressed as CTL secretion of TNF-α dosed in supernatant (X Axis, TNF-α ranges from 0 to 500 pg/ml). The graphs represent TNF-α dosage by cytotoxic cell lines, respectively mCTL380, mCTL391 mCTL393 and mCTL134, after contact with COS cells. In each graph, upper to lower bars represent the different cells in contact with CTL, respectively: negative control (no COS cell), COS cells, COS cells transfected with Hsp70 expression plasmid, COS cells transfected with HHD expression plasmid, positive control (COS cells transfected with HHD and pulsed with the respective peptide), COS cells transfected with HHD and with Hsp70 expression plasmids.
Peptide Processing Assay on COS-Transfected Cells. 2.2×10^4 simian COS cells were plated in flat-bottom 96 well plates in DMEM 10% FCS, in quadruplicates for each condition. 18 hours later, the medium is discarded, and 100 ng of each DNA plasmid, encoding for Hsp70 and HLA class I molecules, is put in contact with COS cells in DMEM 10% Nuserum […] Chloroquine 10 mg/mL DEAE Dextran. After 4 hours of incubation at 37° C., transfection medium is discarded, and 50 μL PBS 10% DMSO is added for 2 minutes for integration of plasmids. It is then discarded and transfected COS cells are placed in DMEM 10% FCS for 40 hours. Transfected COS cells are then used with 5×10^4 murine CTL in a TNF-α secretion assay.
TNF-α Secretion Assay. Transfected COS cells on day 4 or 10^5 target tumor cells were plated in 50 μL RPMI 10% FCS and when necessary incubated with 10 μM peptide for 1 hour. In blocking experiments, anti-HLA class I antibody w6/32 or an irrelevant antibody were incubated with target cells for 1 h30. 5×10^4 T cells were then added in 50 μL RPMI 10% FCS and incubated for 6 hours. Each condition was tested in quadruplicates. 50 μL of the supernatant was collected. Standard dilutions were prepared in 50 μL with final doses of TNF-α (kindly provided by I. Apfler, Bender Wien, Austria) ranging from 10^4 to 0.08 pg/mL. On both the supernatants and the standards were added 50 μL of 3×10^4 TNF-α sensitive WEHI-164c13 cells. They were incubated for 16 hours at 37° C. (23). Inhibition of cell proliferation was evaluated by the MTT colorimetric method. Briefly, 50 μL of MTT at 2.5 mg/mL (Sigma-Aldrich) was added and incubated for 4 hours at 37° C. Cells were then lyzed with 100 μL of a pH4.7 33% N,N-dimethyl formamide (Sigma-Aldrich) 20% SDS solution in water. Two hours after cells lysis, OD was measured at 550 nm on a Dynatech MR5000 spectrophotometer. TNF-α quantitation was calculated by linear interpolation with the standard dilutions.

As for LLLLDVAPL [HSP 391], in experiment [1], the “induction of specific human CTL” value was “capable of stimulating specific human CTL”. Moreover, the “processing of the peptide: recognition of Hsp70 + HHD transfected COS cells by the specific murine CTL line” value (from here on “processing of the peptide”) in experiment [2] is given as “are epitopes”.

For LMGDKSENV [HSP 380], the “induction of specific human CTL” value in experiment [1] is recorded as “capable of stimulating specific human CTL”. Further, the “processing of the peptide” value in experiment [2] was “are epitopes”.

Consider YLGYPVTNAV [HSP 134(10)], for which the “induction of specific human CTL” value in experiment [1] is reported as “capable of stimulating specific human CTL”. For the same sequence, the “processing of the peptide” value in experiment [2] is “are epitopes”.
